Counter-ions that a name gives are not always drawn.
Columns and labels:
DLD-1 = assay: MTS assay, DLD-1; format: cell-based; conditions: Homo sapiens, 72 hours, 1 Percent FBS
MDA-MB-231 = assay: MTS assay, MDA-MB-231; format: cell-based; conditions: Homo sapiens, 72 hours, 1 Percent FBS

melting point | SMILES | inhibition at 10 µM (DLD-1) | inhibition at 10 µM (MDA-MB-231)
138 to 140 °C | COc1ccc2cc(-c3ccnc(NCCc4ccc(OC)c(OC)c4)n3)cc(N3CCNCC3)c2c1 (as salt: HCl) [Compound 110, N-(3,4-dimethoxyphenethyl)-4-(6-methoxy-4-(piperazin-1-yl)naphthalen-2-yl)pyrimidin-2-amine] |  | 
130 to 132 °C | CNc1nccc(-c2cc(NCCCNCCCOC)c3cc(OC)ccc3c2)n1 (as salt: HCl) [Compound 190, N-{7-methoxy-3-[2-(methylamino)pyrimidin-4-yl]-1-naphthyl}-N′-(3-methoxypropyl)propane-1,3-diamine] |  | 
 | COc1ccc2cc(-c3ccnc(NCc4ccc(OC)c(OC)c4)n3)cc(N3CCNCC3)c2c1 [Compound 121, N-(3,4-dimethoxybenzyl)-4-(6-methoxy-4-piperazin-1-yl-2-naphthyl)pyrimidin-2-amine] | 97% | 99%
 | COc1ccc2cc(-c3ccnc(NCCc4cccnc4)n3)cc(N3CCNCC3)c2c1 [Compound 122, 4-(6-methoxy-4-piperazin-1-yl-2-naphthyl)-N-(2-pyridin-3-ylethyl)pyrimidin-2-amine] | 94% | 95%
 | COc1ccc2cc(-c3ccnc(NCCc4ccccn4)n3)cc(N3CCNCC3)c2c1 [Compound 123, 4-(6-methoxy-4-piperazin-1-yl-2-naphthyl)-N-(2-pyridin-2-ylethyl)pyrimidin-2-amine] | 97% | 98%
 | COc1ccc2cc(-c3ccnc(NCCc4ccccc4OC)n3)cc(N3CCNCC3)c2c1 [Compound 124, N-[2-(2-methoxyphenyl)ethyl]-4-(6-methoxy-4-piperazin-1-yl-2-naphthyl)pyrimidin-2-amine] | 97% | 98%
 | COc1ccc2cc(-c3ccnc(NCCN(C)C)n3)cc(N3CCNCC3)c2c1 [Compound 125, N′-[4-(6-methoxy-4-piperazin-1-yl-2-naphthyl)pyrimidin-2-yl]-N,N-dimethylethane-1,2-diamine] | 96% | 96%
 | COc1ccc2cc(-c3ccnc(NCc4cccc(C(F)(F)F)c4)n3)cc(N3CCNCC3)c2c1 [Compound 127, 4-(6-methoxy-4-piperazin-1-yl-2-naphthyl)-N-[3-(trifluoromethyl)benzyl] pyrimidin-2-amine] | 97% | 99%
 | COc1ccc2cc(-c3ccnc(NCc4ccccc4C)n3)cc(N3CCNCC3)c2c1 [Compound 128, 4-(6-methoxy-4-piperazin-1-yl-2-naphthyl)-N-(2-methylbenzyl)pyrimidin-2-amine] | 97% | 98%
 | COc1ccc2cc(-c3ccnc(NCCc4cccc(OC)c4OC)n3)cc(N3CCNCC3)c2c1 [Compound 129, N-[2-(2,3-dimethoxyphenyl)ethyl]-4-(6-methoxy-4-piperazin-1-yl-2-naphthyl)pyrimidin-2-amine] | 97% | 99%
 | COc1ccc2cc(-c3ccnc(NCc4cccnc4)n3)cc(N3CCNCC3)c2c1 [Compound 130, 4-(6-methoxy-4-piperazin-1-yl-2-naphthyl)-N-(pyridin-3-ylmethyl)pyrimidin-2-amine] | 97% | 76%
 | CCN1CCCC(Nc2nccc(-c3cc(N4CCNCC4)c4cc(OC)ccc4c3)n2)C1 (centres unmarked) [Compound 131, N-(1-ethylpiperidin-3-yl)-4-(6-methoxy-4-piperazin-1-yl-2-naphthyl)pyrimidin-2-amine] | 92% | 97%
 | COc1cc(CCNc2nccc(-c3cc(N4CCNCC4)c4cc(OC)ccc4c3)n2)cc(OC)c1 [Compound 132, N-[2-(3,5-dimethoxyphenyl)ethyl]-4-(6-methoxy-4-piperazin-1-yl-2-naphthyl)pyrimidin-2-amine] | 97% | 98%
 | COc1ccc2cc(-c3ccnc(NCCN4CCCC4)n3)cc(N3CCNCC3)c2c1 [Compound 133, 4-(6-methoxy-4-piperazin-1-yl-2-naphthyl)-N-(2-pyrrolidin-1-ylethyl)pyrimidin-2-amine] | 97% | 98%
 | COc1ccc(CCNc2nccc(-c3cc(N4CCNCC4)c4cc(OC)ccc4c3)n2)cc1 [Compound 134, N-[2-(4-methoxyphenyl)ethyl]-4-(6-methoxy-4-piperazin-1-yl-2-naphthyl)pyrimidin-2-amine] | 97% | 98%
 | COc1ccc2cc(-c3ccnc(NCC(C)(C)CN(C)C)n3)cc(N3CCNCC3)c2c1 [Compound 136, N′-[4-(6-methoxy-4-piperazin-1-yl-2-naphthyl)pyrimidin-2-yl]-N,N,2,2-tetramethylpropane-1,3-diamine] | 97% | 95%
 | CNc1nccc(-c2cc(NC3CCN(c4ccc5ccccc5n4)CC3)c3cc(OC)ccc3c2)n1 [Compound 154, 4-{6-methoxy-4-[(1-quinolin-2-ylpiperidin-4-yl)amino]-2-naphthyl}-N-methylpyrimidin-2-amine] | 82% | 41%
 | CNc1nccc(-c2cc(NC3CCN(c4ncnc5nc[nH]c45)CC3)c3cc(OC)ccc3c2)n1 [Compound 157, 4-(6-methoxy-4-{[1-(9H-purin-6-yl)piperidin-4-yl]amino}-2-naphthyl)-N-methylpyrimidin-2-amine] | 46% | 75%
 | CNc1nccc(-c2cc(NC3CCN(c4cc(C(=N)N)cc(Cl)n4)CC3)c3cc(OC)ccc3c2)n1 [Compound 158, 2-chloro-6-[4-({7-methoxy-3-[2-(methylamino)pyrimidin-4-yl]-1-naphthyl}amino)piperidin-1-yl]pyridine-4-carboximidamide] | 98% | 98%
 | CNc1nccc(-c2cc(NC3CCN(c4cc(Cl)ncn4)CC3)c3cc(OC)ccc3c2)n1 [Compound 159, 4-(4-{[1-(6-chloropyrimidin-4-yl)piperidin-4-yl]amino}-6-methoxy-2-naphthyl)-N-methylpyrimidin-2-amine] | 93% | 42%
 | CNc1nccc(-c2cc(NC3CCN(c4nc(C)cc(C(=O)OC)n4)CC3)c3cc(OC)ccc3c2)n1 [Compound 163, methyl 2-[4-({7-methoxy-3-[2-(methylamino)pyrimidin-4-yl]-1-naphthyl}amino)piperidin-1-yl]-6-methylpyrimidine-4-carboxylate] | 97% | 98%
 | CNc1nccc(-c2cc(NC3CCN(c4ncnc5c(C)csc45)CC3)c3cc(OC)ccc3c2)n1 [Compound 164, 4-(6-methoxy-4-{[l-(7-methylthieno[3,2-d]pyrimidin-4-yl)piperidin-4-yl]amino}-2-naphthyl)-N-methylpyrimidin-2-amine] | 98% | 90%
 | CNc1nccc(-c2cc(NC3CCN(c4ncccc4C(=O)OC)CC3)c3cc(OC)ccc3c2)n1 [Compound 168, methyl 2-[4-({7-methoxy-3-[2-(methylamino)pyrimidin-4-yl]-1-naphthyl}amino)piperidin-1-yl]nicotinate] | 98% | 99%

— patent publication US8173808B2, “Substituted naphthalenyl-pyrimidine compounds” (ArQule, Inc., priority 2009, dated 2012)
